From patent US20240109930A1, “TRIAZOLYL-METHYL SUBSTITUTED ALPHA-D-GALACTOPYRANOSIDE DERIVATIVES” (Idorsia Pharmaceuticals Ltd, priority 2021, published 2024)

Legend:
[1] = biological target: human Gal-1 (hGal-1) (Homo sapiens, UniProt P09382, C131S/C17S/C43S/C61S/C89S); assay: Competitive binding assay: biotinylated hGal-1 binding to microplate-adsorbed asialofetuin (ASF); settings: IC50 values from several measurements given as geomean
Description: (§1) The inhibitory activity of compounds is determined in competitive binding assays. This spectrophotometric assay measures the binding of biotinylated human Gal-3 (hGal-3) or human Gal-1 (hGal-1), respectively, to a microplate-adsorbed glycoprotein, asialofetuin (ASF) (Proc Natl Acad Sci USA. 2013 Mar. 26; 110(13):5052-7.). Alternatively, and preferably, a human Gal-1 version in which all six cysteines are substituted by serines may be used.
(§2) Briefly, compounds are serially diluted in DMSO (working dilutions). ASF-coated 384well plates are supplemented with 22.8 μL/well of biotinylated hGal-3 or hGal-1 in assay buffer (i.e. 300-1000 ng/mL biotinylated hGal-3 or hGal-1) to which 1.2 μL of compound working dilutions are added and mixed.
(§3) Plates are incubated for 3 hours at 4° C., then washed with cold assay buffer (3×50 uL), incubated for 1 hour with 25 μL/well of a streptavidin-peroxidase solution (diluted in assay buffer to 80 ng/mL) at 4° C., followed by further washing steps with assay buffer (3×50 uL). Finally, 25 μL/well of ABTS substrate is added.
(§4) The calculated IC50 values may fluctuate depending on the daily assay performance. Fluctuations of this kind are known to those skilled in the art. IC50 values from several measurements are given as geomean values.

[2] = biological target: human Gal-3 (hGal-3) (Homo sapiens (Human), UniProt P17931); assay: Competitive binding assay: biotinylated hGal-3 binding to microplate-adsorbed asialofetuin (ASF); settings: IC50 values from several measurements given as geomean
Description: as §1, §2, §3, §4

human Gal-3 (hGal-3), sequence (P17931 whole entry): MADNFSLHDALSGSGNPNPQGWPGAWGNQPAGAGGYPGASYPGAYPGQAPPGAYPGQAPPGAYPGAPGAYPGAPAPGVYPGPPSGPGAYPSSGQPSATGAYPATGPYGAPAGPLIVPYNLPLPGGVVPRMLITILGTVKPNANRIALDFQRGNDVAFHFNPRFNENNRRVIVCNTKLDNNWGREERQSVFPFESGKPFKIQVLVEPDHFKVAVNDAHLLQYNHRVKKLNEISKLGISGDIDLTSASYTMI

Structure (SMILES)	IC50 [1] [nM]	IC50 [2] [nM]
CO[C@@H]1[C@@H](n2cc(-c3ccc(Cl)c(F)c3F)nn2)[C@@H](O)[C@@H](CO)O[C@@H]1Cc1cn(C2COCCC2(F)F)nn1 (stereo partly drawn) [Example 2.1.73.A, (2R,3R,4S,5R,6R)-4-(4-(4-chloro-2,3-difluorophenyl)-1H-1,2,3-triazol-1-yl)-6-((1-(4,4-difluorotetrahydro-2H-pyran-3-yl)-1H-1,2,3-triazol-4-yl)methyl)-2-(hydroxymethyl)-5-methoxytetrahydro-2H-pyran-3-ol]	1400	–
CO[C@@H]1[C@@H](n2cc(-c3ccc(C)c(F)c3F)nn2)[C@@H](O)[C@@H](CO)O[C@@H]1Cc1cn(C23CC(F)(C2)C3)nn1 [Ex 1.1.25.]	3950	40
CO[C@@H]1[C@@H](n2cc(-c3ccc(C)c(F)c3F)nn2)[C@@H](O)[C@@H](CO)O[C@@H]1Cc1cn(C23CCC(O)(CC2)CC3)nn1 [Ex 1.1.8.]	4010	50
CO[C@@H]1[C@@H](n2cc(-c3ccc(C)c(F)c3F)nn2)[C@@H](O)[C@@H](CO)O[C@@H]1Cn1cc(C2CCCC2)nn1 [Ex 1.2.32.]	5130	60
CO[C@@H]1[C@@H](n2cc(-c3ccc(Cl)c(F)c3F)nn2)[C@@H](O)[C@@H](CO)O[C@@H]1Cc1cn(C2CC3(CC3)C2)nn1 [Ex 2.1.26.]	7860	100
CO[C@@H]1[C@@H](n2cc(-c3ccc(Cl)c(F)c3F)nn2)[C@@H](O)[C@@H](CO)O[C@@H]1Cn1cc(C2(C(F)F)CC2)nn1 [Ex 2.2.51.]	2550	60
CO[C@@H]1[C@@H](n2cc(-c3ccc(C)c(F)c3F)nn2)[C@@H](O)[C@@H](CO)O[C@@H]1Cn1cc(C2(O)CCC2)nn1 [Ex 1.2.31.]	3760	60
CO[C@@H]1[C@@H](n2cc(-c3ccc(Br)c(F)c3F)nn2)[C@@H](O)[C@@H](CO)O[C@@H]1Cc1cn(C23COC(C)(C2)C3)nn1 [Ex 4.1.59., (2R,3R,4S,5R,6R)-4-(4-(4-bromo-2,3-difluorophenyl)-1H-1,2,3-triazol-1-yl)-2-(hydroxymethyl)-5-methoxy-6-((1-(1-methyl-2-oxabicyclo[2.1.1]hexan-4-yl)-1H-1,2,3-triazol-4-yl)methyl)tetrahydro-2H-pyran-3-ol]	2030	30
CO[C@@H]1[C@@H](n2cc(-c3ccc(Br)c(F)c3F)nn2)[C@@H](O)[C@@H](CO)O[C@@H]1Cn1cc(C2(O)CC2)nn1 [Ex 4.2.36.]	5910	130
CO[C@@H]1[C@@H](n2cc(-c3ccc(C)c(F)c3F)nn2)[C@@H](O)[C@@H](CO)O[C@@H]1Cc1cn([C@@H]2COCC[C@H]2O)nn1 [Ex 1.1.1.]	2610	50
CO[C@@H]1[C@@H](n2cc(-c3ccc(F)c(F)c3F)nn2)[C@@H](O)[C@@H](CO)O[C@@H]1Cc1cn(C23COC(C2)C3)nn1 [Example 3.1.44, (2R,3R,4S,5R,6R)-6-((1-(2-oxabicyclo[2.1.1]hexan-4-yl)-1H-1,2,3-triazol-4-yl)methyl)-2-(hydroxymethyl)-5-methoxy-4-(4-(2,3,4-trifluorophenyl)-1H-1,2,3-triazol-1-yl)tetrahydro-2H-pyran-3-ol]	–	40
CO[C@@H]1[C@@H](n2cc(-c3ccc(Br)c(F)c3F)nn2)[C@@H](O)[C@@H](CO)O[C@@H]1Cn1cc(C2(O)CCC2)nn1 [Ex 4.2.31.]	2550	–
CO[C@@H]1[C@@H](n2cc(-c3ccc(Cl)c(F)c3F)nn2)[C@@H](O)[C@@H](CO)O[C@@H]1Cc1cn([C@@H]2CC[C@@H]2F)nn1 (relative stereo) [Example 2.1.88.A, (2R,3R,4S,5R,6R)-4-(4-(4-chloro-2,3-difluorophenyl)-1H-1,2,3-triazol-1-yl)-6-((1-((1R*,2S*)-2-fluorocyclobutyl)-1H-1,2,3-triazol-4-yl)methyl)-2-(hydroxymethyl)-5-methoxytetrahydro-2H-pyran-3-ol]	1770	–
CO[C@@H]1[C@@H](n2cc(-c3ccc(Cl)c(F)c3F)nn2)[C@@H](O)[C@@H](CO)O[C@@H]1Cc1cn([C@@H]2CC[C@H]2F)nn1 (relative stereo) [Example 2.1.88.C, (2R,3R,4S,5R,6R)-4-(4-(4-chloro-2,3-difluorophenyl)-1H-1,2,3-triazol-1-yl)-6-((1-((1R*,2R*)-2-fluorocyclobutyl)-1H-1,2,3-triazol-4-yl)methyl)-2-(hydroxymethyl)-5-methoxytetrahydro-2H-pyran-3-ol]	1680	–

Continued by falling IC50 [1], values first:

IC50 [1] [nM]	IC50 [2] [nM]	Structure (SMILES)
1200	30	CO[C@@H]1[C@@H](n2cc(-c3ccc(Cl)c(F)c3F)nn2)[C@@H](O)[C@@H](CO)O[C@@H]1Cc1cn([C@]2(C)C[C@H](F)C2)nn1 [Ex 2.1.47.B]
1200	30	CO[C@@H]1[C@@H](n2cc(-c3ccc(Cl)c(F)c3F)nn2)[C@@H](O)[C@@H](CO)O[C@@H]1Cc1cn(C23CCOC(C)(C2)C3)nn1 [Ex 2.1.62., (2R,3R,4S,5R,6R)-4-(4-(4-chloro-2,3-difluorophenyl)-1H-1,2,3-triazol-1-yl)-2-(hydroxymethyl)-5-methoxy-6-((1-(1-methyl-2-oxabicyclo[3.1.1]heptan-5-yl)-1H-1,2,3-triazol-4-yl)methyl)tetrahydro-2H-pyran-3-ol]
1190	40	CO[C@@H]1[C@@H](n2cc(-c3ccc(Cl)c(F)c3F)nn2)[C@@H](O)[C@@H](CO)O[C@@H]1Cc1cn(C2CC(F)C2)nn1 (single isomer, unassigned) [Example 2.1.60.B]
800	–	CO[C@@H]1[C@@H](n2cc(-c3ccc(F)c(F)c3F)nn2)[C@@H](O)[C@@H](CO)O[C@@H]1Cc1cn(C23COC(C2)C3)nn1 [Ex 3.1.44.]
760	–	CO[C@@H]1[C@@H](n2cc(-c3ccc(Cl)c(F)c3F)nn2)[C@@H](O)[C@@H](CO)O[C@@H]1Cc1cn(C2(C(F)(F)F)CCOC2)nn1 (stereo partly drawn) [Example 2.1.77.A, (2R,3R,4S,5R,6R)-4-(4-(4-chloro-2,3-difluorophenyl)-1H-1,2,3-triazol-1-yl)-2-(hydroxymethyl)-5-methoxy-6-((1-(3-(trifluoromethyl)tetrahydrofuran-3-yl)-1H-1,2,3-triazol-4-yl)methyl)tetrahydro-2H-pyran-3-ol]
730	–	CO[C@@H]1[C@@H](n2cc(-c3ccc(F)c(F)c3F)nn2)[C@@H](O)[C@@H](CO)O[C@@H]1Cn1cc(C2(O)CCC2)nn1 [Ex 3.2.31.]
690	40	CO[C@@H]1[C@@H](n2cc(-c3ccc(C)c(F)c3F)nn2)[C@@H](O)[C@@H](CO)O[C@@H]1Cc1cn(C2(CCO)COC2)nn1 [Ex 1.1.22.]
620	20	CO[C@@H]1[C@@H](n2cc(-c3ccc(Cl)c(F)c3F)nn2)[C@@H](O)[C@@H](CO)O[C@@H]1Cc1cn(C2(C(F)(F)F)CCC2)nn1 [Ex 2.1.55.]
600	60	CO[C@@H]1[C@@H](n2cc(-c3ccc(F)c(F)c3F)nn2)[C@@H](O)[C@@H](CO)O[C@@H]1Cc1cn(C2(CO)CCCC2)nn1 [Ex 3.1.5.]
590	30	CO[C@@H]1[C@@H](n2cc(-c3ccc(Cl)c(F)c3F)nn2)[C@@H](O)[C@@H](CO)O[C@@H]1Cc1cn(C2(C(F)(F)F)CCOC2)nn1 (single isomer, unassigned) [Example 2.1.77.B]
420	60	CO[C@@H]1[C@@H](n2cc(-c3ccc(F)c(F)c3F)nn2)[C@@H](O)[C@@H](CO)O[C@@H]1Cc1cn(C2(CCO)COC2)nn1 [Ex 3.1.22.]
